Experiments:
[1] = biological target: T1, GzmB (Homo sapiens, UniProt P10144); assay: Inhibition of Fibronectin Cleavage by GzmB (Example D8); format: biochemical; settings: 20 nM granzyme B, Hilyte Fluor 488 labeled Fibronectin, 30° C.; for inhibition at 0.62 µM: 0.62 uM inhibitor, read-out: Percent Inhibition at Inhibitor Concentration 0.62 uM; for inhibition at 5.56 µM: 5.56 uM inhibitor, read-out: Percent Inhibition at Inhibitor Concentration 5.56 uM; for inhibition at 50 µM: 50 uM inhibitor, read-out: Percent Inhibition at Inhibitor Concentration 50 uM
Experimental: Black, 96 well high-binding assay plates (Griener Bio-one) were treated overnight at 4° C. with 40 uL of 8 ug/mL Hilyte Fluor 488 labeled Fibronectin (Cytoskeleton, Inc). After fibronectin coating, plates were washed 3 times in buffer (20 mM Tris-HCl, pH 7.4, 20 mM NaCl) then once with granzyme B assay buffer (50 mM HEPES, pH 7.5, 0.1% CHAPS). After washing, 50 uL of granzyme B assay buffer was added to each fibronectin-coated well. In a separate non-binding 96 well assay plate 5 uL of 20× inhibitor serial dilution stocks were added to 45 uL of 2.22× GzmB mix to establish inhibition (enzyme/inhibitor mixes were all prepared in granzyme B assay buffer and were incubated first at room temperature for 20 minutes, then at 30° C. for another 10 minutes). After incubation, 50 uL of this 2× enzyme/inhibitor mix was added to the corresponding coated well to initiate fibronectin cleavage (20 nM final granzyme B concentration, 8-point inhibitor dilution series starting at 50 uM). The assay was conducted at 30° C. in the TECAN plate reader (TECAN INFINITE® M1000 Pro), which was programmed to monitor the kinetic fluorescence polarization signal (filter set Ex/Em 470 nm/527 nm) with readings taken every minute, for 1 hour. Proteolytic activity was evaluated as the rate of fluorescence enhancement in the parallel emission over the linear range of the reaction. % Inhibition values were calculated from assay controls and the resulting date is shown in Table 7.

[2] = biological target: T1, GzmB; assay: Inhibition of Cell Detachment by GzmB Assay (Example D7); format: cell-based; settings: 50 uM inhibitor; 100 nM GzmB; HDFa primary human fibroblasts; 7 hours; MTS absorbance 490 nm; read-out: Percent Inhibition of cell detachment at 50 uM
Experimental: HDFa primary human fibroblasts were plated at 10 k/well in 200 ul, approximately 20 hrs before treatment. The next day, controls and 100 nM GzmB (recombinant, human) plus or minus inhibitor treatments were prepared in serum-free media. GzmB and inhibitor were incubated for 20 minutes at RT before adding to cells. Before addition, media and serum was removed from the cells and the cells were washed with PBS (1×), using pipettes to prevent disturbing the cells. Treatment preparations (100 ul) were added to the wells and incubated for 7 hours in a tissue culture incubator. After 7 hours, media and treatments were removed and the cells were washed with PBS (1×) to removed detached cells, using pipettes only. Phase pictures were taken then the PBS was removed and replaced with 100 uL of serum-free media and 20 uL of MTS and the cells were allowed to incubate for 3 hours in a cell culture incubator. After 3 hours the absorbance was read at 490 nm and a percent inhibition value for the treatments with inhibitors was determined from the control wells.

T1 sequence (P10144 21-247): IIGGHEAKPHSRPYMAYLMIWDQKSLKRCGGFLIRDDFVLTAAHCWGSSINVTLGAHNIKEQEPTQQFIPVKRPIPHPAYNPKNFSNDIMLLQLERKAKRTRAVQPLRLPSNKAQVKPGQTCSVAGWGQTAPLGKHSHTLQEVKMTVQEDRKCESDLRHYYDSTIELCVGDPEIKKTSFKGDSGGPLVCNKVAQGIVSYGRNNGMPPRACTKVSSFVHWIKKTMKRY

inhibition at 0.62 µM [1] | inhibition at 5.56 µM [1] | inhibition at 50 µM [1] | inhibition at 50 µM [2] | SMILES
28% | 56% | 78% |  | CC(C)C(NC(=O)CCC(=O)O)c1ccc(C(=O)N2CCC[C@H]2C(=O)NCc2nn[nH]n2)[nH]1 (mixture of isomers) [Compound C4, 3-{[2-methyl-1-{5-[(2S)-2-[(2H-1,2,3,4-tetrazol-5-ylmethyl)carbamoyl]pyrrolidine-1-carbonyl]-1H-pyrrol-2-yl}propyl]carbamoyl}propanoic acid]
 |  |  | 91% | CC(C)C(NC(=O)CCC(=O)O)c1ccc(C(=O)NCC(=O)NCc2nn[nH]n2)[nH]1 (racemic) [Compound C3, 3-{[2-methyl-1-[5-({[(2H-1,2,3,4-tetrazol-5-ylmethyl)carbamoyl]methyl}carbamoyl)-1H-pyrrol-2-yl]propyl]carbamoyl}propanoic acid]
63% | 83% | 94% |  | O=C(O)CCC(=O)NC(c1ccc(C(=O)N2C[C@@H](O)C[C@H]2C(=O)NCc2nn[nH]n2)[nH]1)C1CCCC1 (stereo partly drawn) [Compound C8, 3-{[cyclopentyl({5-[(2S,4S)-4-hydroxy-2-[(2H-1,2,3,4-tetrazol-5-ylmethyl)carbamoyl]pyrrolidine-1-carbonyl]-1H-pyrrol-2-yl})methyl]carbamoyl}propanoic acid]

Source: patent US9458138B1, “Pyrrole compounds as granzyme B inhibitors” (viDA Therapeutics Inc., priority 2014, dated 2016)
